Test results: PubChem BioAssay (NCI)
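Cultured in 96-well plates, cells were exposed to test compound for 48 hours across five concentrations. The concentration for 50% growth inhibition is given as GI50. TGI marks complete inhibition of growth.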

Key:
Test in all cases: inhibition of tumour cell growth, NCI panel, 48 h
COLO 205 colon = test system: COLO 205 colon
786-0 renal = test system: 786-0 renal
TK-10 renal = test system: TK-10 renal
HT29 colon = test system: HT29 colon
OVCAR-5 ovarian = test system: OVCAR-5 ovarian
HL-60(TB) leukemia = test system: HL-60(TB) leukemia
U251 CNS = test system: U251 CNS
UACC-62 melanoma = test system: UACC-62 melanoma
CAKI-1 renal = test system: CAKI-1 renal

| SMILES | TGI (COLO 205 colon) | TGI (786-0 renal) | TGI (TK-10 renal) | TGI (HT29 colon) | TGI (OVCAR-5 ovarian) | TGI (HL-60(TB) leukemia) | TGI (U251 CNS) | TGI (UACC-62 melanoma) | TGI (CAKI-1 renal) | GI50 (UACC-62 melanoma) | GI50 (OVCAR-5 ovarian) | GI50 (CAKI-1 renal) |
| --- | --- | --- | --- | --- | --- | --- | --- | --- | --- | --- | --- | --- |
| COC(=O)C(CCCC1(c2ccccc2)OCCO1)C(C)=O (configuration not stated) | > 100 µM | > 100 µM | > 100 µM | > 100 µM | > 100 µM | > 100 µM | > 100 µM | – | – | – | – | – |
| Cc1cn(C2CCC(/C=N\O)O2)c(=O)[nH]c1=O (configuration not stated) | > 100 µM | > 100 µM | – | > 100 µM | > 100 µM | – | > 100 µM | > 100 µM | > 100 µM | – | – | – |
| COc1nc(SC)nc2c1cnn2C1OC(C(O)CO)C(OC)C1O (configuration not stated) | > 100 µM | – | – | > 100 µM | > 100 µM | > 100 µM | > 100 µM | > 100 µM | – | – | – | – |
| OC12COc3ccccc3C1Oc1ccccc1C2 (configuration not stated) | > 100 µM | > 100 µM | > 100 µM | > 100 µM | > 100 µM | – | > 100 µM | > 100 µM | > 100 µM | – | – | – |
| CCCC/C=C/C1Cc2ccccc2CN1S(=O)(=O)c1ccc(C)cc1 (configuration not stated) | 22 µM | 25.1 µM | 61.3 µM | 21.7 µM | 82.3 µM | > 100 µM | 39.3 µM | 27.5 µM | – | – | – | – |
| CCCCc1c2c(nc3c1CCCC3O)/C(=C/c1ccccc1)CCC2 (configuration not stated) | 33.4 µM | 57 µM | 74.7 µM | 46.1 µM | > 100 µM | 43 µM | 64.1 µM | 95.7 µM | – | – | – | – |
| CCCc1c(OC)c(=O)c2c(OC)cc(OC)c3c4c(OC)cc(OC)c5c(=O)c(OC)c(CCC)c(c1c23)c54 | 27.2 µM | 26.7 µM | 36.8 µM | 24.1 µM | 29 µM | 10.4 µM | 29.6 µM | 24.1 µM | 27.7 µM | – | – | – |
| CSc1nc(-c2cc3c(c(SC)n2)CCCCC3)cc2c1CCCCC2 | > 100 µM | > 100 µM | > 100 µM | > 100 µM | > 100 µM | > 100 µM | > 100 µM | > 100 µM | > 100 µM | – | – | – |
| CCCN(CCCC(NC(C)=O)C(=O)NCc1ccccc1)C(=O)NC (configuration not stated) | > 100 µM | > 100 µM | > 100 µM | > 100 µM | > 100 µM | – | > 100 µM | > 100 µM | > 100 µM | – | – | – |
| CCOC(=O)c1c(C)c2c(n1C)CCc1cn[nH]c1-2 | > 100 µM | – | – | > 100 µM | > 100 µM | > 100 µM | > 100 µM | > 100 µM | > 100 µM | – | – | – |
| NCCCNc1nc2ccccc2c2c(=O)c3cc(C(F)(F)F)ccc3sc12 | – | – | – | – | 3.15 µM | – | – | 3.09 µM | 2.84 µM | 1.68 µM | 1.73 µM | 1.51 µM |
| COC(OC)c1cccc2c1C(=O)CCC1(O)c3ccccc3C1C2 (configuration not stated) | > 100 µM | > 100 µM | > 100 µM | > 100 µM | > 100 µM | > 100 µM | – | > 100 µM | – | – | – | – |
| Nc1nc(SCCNC(=O)CCc2ccc(O)cc2)nc2c1ncn2C1OC(CO)C(O)C1O (configuration not stated) | > 203 µM | > 203 µM | > 203 µM | > 203 µM | > 203 µM | > 203 µM | > 203 µM | > 203 µM | > 203 µM | – | – | – |
| COc1ccc(C2C3C(=O)C=CC(=O)C3[C@@H]2C)cc1OC (some centres not stated) | > 100 µM | > 100 µM | > 100 µM | > 100 µM | > 100 µM | – | > 100 µM | > 100 µM | > 100 µM | – | – | – |
| Clc1ccc(SCCSCCCCCCCCCCSCCSc2ccc(Cl)cc2)cc1 | > 100 µM | > 100 µM | > 100 µM | > 100 µM | > 100 µM | > 100 µM | > 100 µM | > 100 µM | > 100 µM | – | – | – |
| Cc1ccc(-c2c(C#N)c(S)n(NS(=O)(=O)c3ccc(C)cc3)c(=O)c2C#N)cc1 | > 100 µM | > 100 µM | 50.5 µM | – | 67 µM | > 100 µM | 37.7 µM | > 100 µM | 74.3 µM | – | – | – |
| Cc1cccc2c1Oc1cc(Cl)ccc1C2NC(=O)CCN1CCN(CCO)CC1 (configuration not stated) | 36.6 µM | 26.5 µM | – | 29.8 µM | 40.9 µM | 39 µM | 29.3 µM | 28.7 µM | – | – | – | – |
| CCCn1c(SCC)c2ccccc2c1-c1nc(F)nc(F)n1 | > 100 µM | > 100 µM | > 100 µM | > 100 µM | > 100 µM | > 100 µM | > 100 µM | – | > 100 µM | – | – | – |
| CC(OC(=O)NCn1cc(-c2ccccc2)nn1)c1ccccc1 (configuration not stated) | > 100 µM | > 100 µM | > 100 µM | > 100 µM | > 100 µM | 75 µM | > 100 µM | – | > 100 µM | – | – | – |
| COC(=O)C1=C(C(=O)OC)C2(OC(C)=O)c3ccccc3-c3ccccc3C12 (configuration not stated) | 3.68 µM | 8.26 µM | 8.08 µM | 10.6 µM | 27.2 µM | – | 20.1 µM | 24.4 µM | 6.08 µM | – | – | – |
| COc1cc2c(c(C)c1O)[C@H]1COc3ccccc3[C@H]1O2 | 52.2 µM | 42.6 µM | 80.8 µM | > 100 µM | > 100 µM | 12.7 µM | – | – | 30 µM | – | – | – |
